# Values quoted from earlier work as cited in patent US6514992B1, “Caspases and apoptosis” (SmithKline Beecham Corporation, priority 1998, dated 2003).
# Tested on: osteoclasts of murine bone marrow cultures
# Conditions: murine bone marrow cultures grown for 6 days in vitro
substance,measurement,value
TGF-β1: cytokine cited as inducing apoptosis in osteoclasts of murine bone marrow cultures,apoptosis induced in osteoclasts,approx. 30%
